Test results reported in US11311522B1 (Cavion, Inc., priority 2018, dated 2022).

Experiments:
[1] = system: T1, guinea pig adenosine transporter; assay: Adenosine transporter inhibition; format: biochemical; conditions: 10 μM
T1 construct: other: 10 μM

[2] = PN002/Part I: safety and tolerability; format: in vivo, human
Experimental: All adverse events were mild or moderate in intensity. No serious adverse events were reported. […] Treatment periods were separated by a minimum 1-week washout period after administration of the 2 mg dose in Period 1 and by a minimum 2-week washout after subsequent treatment periods. Clinical safety was monitored throughout the study by adverse events, clinical laboratory tests, vital signs, ECGs, and ECG telemetry. *The study was planned to include 8 subjects. A ninth subject was randomized to replace a subject who was discontinued after Period 1 (because of a prolonged QTc interval after administration of the 2 mg dose, which was considered by the investigator to be unrelated to the study drug). […] The most frequently reported adverse events were relaxation, fuzzy head, headache, lightheadedness, dizziness, and mood alteration, all of which were transient and generally mild or moderate in severity.

in vivo = conditions: male, Beagle, dog, plasma, po, 20 mg/kg/day
CYP3A4 and CYP2C9 = assay: In vitro metabolism (liver microsomes, hepatocytes, recombinant CYPs, anti-CYP antibodies); format: in vitro ADME, human; conditions: 10 μM CX-8998
Excerpt: Glucuronide conjugates of the oxygenated metabolites are detected in human, monkey, and dog hepatocyte preparations. […] However, the abundance of CYP3A5, CYP2C19, and CYP2D6 in human liver microsomes is low (2%-5%) relative to the primary contributors, CYP3A4 (˜30%) and CYP2C9 (˜20%). […] Information on reproductive and developmental toxicology was obtained in a 28-day pivotal female fertility study in rats and in preliminary embryo-fetal development studies in rats and rabbits.

C=C(C)c1ccc(CC(=O)N[C@H](C)c2ccc(OCC(F)(F)F)cn2)cc1 [M01]
Inhibition [1]: 79%

CC(C)c1ccc(CC(=O)N[C@H](C)c2ccc(OCC(F)(F)F)cn2)cc1 [CX-8998]
At least 1 adverse event ([2]; 2 mg): 5 (71.4) n (%)
Breathing difficult ([2]; 2 mg): 0 n (%)
Dizziness ([2]; 2 mg): 0 n (%)
Dizziness upon standing ([2]; 2 mg): 0 n (%)
Dry mouth ([2]; 2 mg): 0 n (%)
Dry throat ([2]; 2 mg): 0 n (%)
Eye Disorders ([2]; 2 mg): 0 n (%)
Feeling drunk ([2]; 2 mg): 0 n (%)
Feeling hot ([2]; 2 mg): 0 n (%)
Feeling of relaxation ([2]; 2 mg): 1 (14.3) n (%)
Feeling of warmth ([2]; 2 mg): 0 n (%)
Floating feeling ([2]; 2 mg): 1 (14.3) n (%)
Fuzzy head ([2]; 2 mg): 0 n (%)
Gastrointestinal Disorders ([2]; 2 mg): 1 (14.3) n (%)
Headache ([2]; 2 mg): 2 (28.6) n (%)
Lightheadedness ([2]; 2 mg): 0 n (%)
Nasal congestion ([2]; 2 mg): 0 n (%)
Nervous System Disorders ([2]; 2 mg): 2 (28.6) n (%)
Paraesthesia of fingers ([2]; 2 mg): 0 n (%)
Respiratory, Thoracic and Mediastinal Disorders ([2]; 2 mg): 1 (14.3) n (%)
Tiredness ([2]; 2 mg): 0 n (%)
Vision blurred ([2]; 2 mg): 0 n (%)
Visual disturbance ([2]; 2 mg): 0 n (%)
At least 1 adverse event ([2]; 4 mg): 5 (83.3) n (%)
Breathing difficult ([2]; 4 mg): 0 n (%)
Dizziness ([2]; 4 mg): 0 n (%)
Dizziness upon standing ([2]; 4 mg): 0 n (%)
Dry mouth ([2]; 4 mg): 0 n (%)
Dry throat ([2]; 4 mg): 0 n (%)
Eye Disorders ([2]; 4 mg): 1 (16.7) n (%)
Feeling drunk ([2]; 4 mg): 0 n (%)
Feeling hot ([2]; 4 mg): 0 n (%)
Feeling of relaxation ([2]; 4 mg): 1 (16.7) n (%)
Feeling of warmth ([2]; 4 mg): 0 n (%)
Floating feeling ([2]; 4 mg): 1 (16.7) n (%)
Fuzzy head ([2]; 4 mg): 1 (16.7) n (%)
Headache ([2]; 4 mg): 3 (50.0) n (%)
Lightheadedness ([2]; 4 mg): 1 (16.7) n (%)
Nasal congestion ([2]; 4 mg): 1 (16.7) n (%)
Nervous System Disorders ([2]; 4 mg): 5 (83.3) n (%)
Paraesthesia of fingers ([2]; 4 mg): 0 n (%)
Respiratory, Thoracic and Mediastinal Disorders ([2]; 4 mg): 1 (16.7) n (%)
Tiredness ([2]; 4 mg): 1 (16.7) n (%)
Vision blurred ([2]; 4 mg): 1 (16.7) n (%)
Visual disturbance ([2]; 4 mg): 0 n (%)
At least 1 adverse event ([2]; 8 mg): 6 (100) n (%)
Breathing difficult ([2]; 8 mg): 1 (16.7) n (%)
Dizziness ([2]; 8 mg): 2 (33.3) n (%)
Dizziness upon standing ([2]; 8 mg): 1 (16.7) n (%)
Dry mouth ([2]; 8 mg): 4 (66.7) n (%)
Dry throat ([2]; 8 mg): 1 (16.7) n (%)
Eye Disorders ([2]; 8 mg): 2 (33.3) n (%)
Feeling drunk ([2]; 8 mg): 0 n (%)
Feeling hot ([2]; 8 mg): 2 (33.3) n (%)
Feeling of relaxation ([2]; 8 mg): 0 n (%)
Feeling of warmth ([2]; 8 mg): 0 n (%)
Floating feeling ([2]; 8 mg): 1 (16.7) n (%)
Fuzzy head ([2]; 8 mg): 2 (33.3) n (%)
Gastrointestinal Disorders ([2]; 8 mg): 4 (66.7) n (%)
Headache ([2]; 8 mg): 3 (50.0) n (%)
Lightheadedness ([2]; 8 mg): 3 (50.0) n (%)
Nasal congestion ([2]; 8 mg): 1 (16.7) n (%)
Nervous System Disorders ([2]; 8 mg): 6 (100.0) n (%)
Paraesthesia of fingers ([2]; 8 mg): 0 n (%)
Respiratory, Thoracic and Mediastinal Disorders ([2]; 8 mg): 3 (50.0) n (%)
Tiredness ([2]; 8 mg): 2 (33.3) n (%)
Vision blurred ([2]; 8 mg): 1 (16.7) n (%)
Visual disturbance ([2]; 8 mg): 1 (16.7) n (%)
At least 1 adverse event ([2]; 12 mg): 5 (83.3) n (%)
Breathing difficult ([2]; 12 mg): 0 n (%)
Dizziness ([2]; 12 mg): 0 n (%)
Dizziness upon standing ([2]; 12 mg): 0 n (%)
Dry mouth ([2]; 12 mg): 1 (16.7) n (%)
Dry throat ([2]; 12 mg): 0 n (%)
Eye Disorders ([2]; 12 mg): 1 (16.7) n (%)
Feeling drunk ([2]; 12 mg): 1 (16.7) n (%)
Feeling hot ([2]; 12 mg): 0 n (%)
Feeling of relaxation ([2]; 12 mg): 2 (33.3) n (%)
Feeling of warmth ([2]; 12 mg): 0 n (%)
Floating feeling ([2]; 12 mg): 0 n (%)
Fuzzy head ([2]; 12 mg): 0 n (%)
Headache ([2]; 12 mg): 3 (50.0) n (%)
Lightheadedness ([2]; 12 mg): 0 n (%)
Nasal congestion ([2]; 12 mg): 0 n (%)
Nervous System Disorders ([2]; 12 mg): 4 (66.7) n (%)
Paraesthesia of fingers ([2]; 12 mg): 0 n (%)
Respiratory, Thoracic and Mediastinal Disorders ([2]; 12 mg): 1 (16.7) n (%)
Tiredness ([2]; 12 mg): 0 n (%)
Vision blurred ([2]; 12 mg): 1 (16.7) n (%)
Visual disturbance ([2]; 12 mg): 0 n (%)
At least 1 adverse event ([2]; 18 mg): 6 (100.0) n (%)
Breathing difficult ([2]; 18 mg): 2 (33.3) n (%)
Dizziness ([2]; 18 mg): 2 (33.3) n (%)
Dizziness upon standing ([2]; 18 mg): 1 (16.7) n (%)
Dry mouth ([2]; 18 mg): 0 n (%)
Dry throat ([2]; 18 mg): 1 (16.7) n (%)
Eye Disorders ([2]; 18 mg): 2 (33.3) n (%)
Feeling drunk ([2]; 18 mg): 1 (16.7) n (%)
Feeling hot ([2]; 18 mg): 2 (33.3) n (%)
Feeling of relaxation ([2]; 18 mg): 2 (33.3) n (%)
Feeling of warmth ([2]; 18 mg): 2 (33.3) n (%)
Floating feeling ([2]; 18 mg): 2 (33.3) n (%)
Fuzzy head ([2]; 18 mg): 2 (33.3) n (%)
Gastrointestinal Disorders ([2]; 18 mg): 3 (50.0) n (%)
Headache ([2]; 18 mg): 2 (33.3) n (%)
Lightheadedness ([2]; 18 mg): 1 (16.7) n (%)
Nasal congestion ([2]; 18 mg): 0 n (%)
Nervous System Disorders ([2]; 18 mg): 6 (100.0) n (%)
Paraesthesia of fingers ([2]; 18 mg): 2 (33.3) n (%)
Respiratory, Thoracic and Mediastinal Disorders ([2]; 18 mg): 2 (33.3) n (%)
Tiredness ([2]; 18 mg): 1 (16.7) n (%)
Vision blurred ([2]; 18 mg): 0 n (%)
Visual disturbance ([2]; 18 mg): 2 (33.3) n (%)
At least 1 adverse event ([2]; any dose): 9 (100.0) n (%)
Breathing difficult ([2]; any dose): 2 (22.2) n (%)
Dizziness ([2]; any dose): 3 (33.3) n (%)
Dizziness upon standing ([2]; any dose): 2 (22.2) n (%)
Dry mouth ([2]; any dose): 4 (44.4) n (%)
Dry throat ([2]; any dose): 2 (22.2) n (%)
Eye Disorders ([2]; any dose): 4 (44.4) n (%)
Feeling drunk ([2]; any dose): 2 (22.2) n (%)
Feeling hot ([2]; any dose): 2 (22.2) n (%)
Feeling of relaxation ([2]; any dose): 5 (55.6) n (%)
Feeling of warmth ([2]; any dose): 2 (22.2) n (%)
Floating feeling ([2]; any dose): 2 (22.2) n (%)
Fuzzy head ([2]; any dose): 3 (33.3) n (%)
Gastrointestinal Disorders ([2]; any dose): 6 (66.7) n (%)
Headache ([2]; any dose): 7 (77.8) n (%)
Lightheadedness ([2]; any dose): 4 (44.4) n (%)
Nasal congestion ([2]; any dose): 2 (22.2) n (%)
Nervous System Disorders ([2]; any dose): 8 (88.8) n (%)
Paraesthesia of fingers ([2]; any dose): 2 (22.2) n (%)
Respiratory, Thoracic and Mediastinal Disorders ([2]; any dose): 4 (44.4) n (%)
Tiredness ([2]; any dose): 3 (33.3) n (%)
Vision blurred ([2]; any dose): 3 (33.3) n (%)
Visual disturbance ([2]; any dose): 3 (33.3) n (%)
Tolerability ([2]; single doses up to 18 mg): generally well tolerated
AUC (in vivo): 425 µM·h
Inhibition of metabolism by antihuman CYP3A and CYP2C antibodies (CYP3A4 and CYP2C9): > 90%
